The numbers were not newly measured in patent publication EP0023178A1, “Process for the preparation of concentrated solutions of amygdaline in its natural form” (SOMET, Société dite, priority 1979, dated 1981), which cites them from elsewhere.

The conditions of this data set: water.

For `N#CC(OC1OC(COC2OC(CO)C(O)C(O)C2O)C(O)C(O)C1O)c1ccccc1` (stereo not drawn) [amygdaline, D ou R mandélonitrile β-gentiobioside trihydraté], the “solubilité dans l'eau” value was 8-8,5%.
